Source: patent US10967060B2, “Synergistic combination of immunologic inhibitors for the treatment of cancer” (The University of Chicago, priority 2012, dated 2021)

System: B16-SIY cells
Experiment: Unaffected fraction (synergy) analysis of tumor growth inhibition of combination therapies
Type: in vivo, C57BL/6 mice
Details: for Predicted TGI: expected for purely additive effect
Description: Treatment was initiated on day 4 post tumor inoculation with the following regimens for each drug. αCTLA-4 antibody (clone UC10-4F10-11, Bio-X-Cell) was given i.p. on day 4, 7 and 10 at a dose of 100 μg/mouse. αPD-L1 antibody (clone 10F.9G2, Bio-X-Cell) was given i.p. (100 μg/mouse) every other day starting on day 4 ending on day 16 post tumor inoculation. IDOi (INCB23843, Incyte Corporation) was dissolved in 0.5% methylcellulose and administered at 300 mg/kg po QD on a 5 days on/2 days off schedule starting on day 4. In the case of functional experiments with an earlier endpoint, treatment regimens were carried out as described until the day of T cell analysis. A comparison between IDOi and IDOc (INCB24360, Incyte Corporation) was perfomed according to the treatment regime described above. Tumor outgrowth was followed starting day 7 onwards and is depicted in combination with anti-CTLA4 (FIG. 18A) or anti-PD-L1 (FIG. 18B). N=5 mice per group, and a two-way Anova test was used to determine significance between the groups.
Treatment was administered in the same fashion as described for FIG. 9, with the exception that IDOi (INCB23843) was replaced by IDOc (INCB24360) in the indicated groups.
Synergy analysis was performed with day 15 data and with day 23 data. Actual tumor growth inhibition (TGI) is the experimental TGI seen in this experiment for the combinations, and predicted TGI is the TGI that would have been expected for a purely additive combination effect from the performance of the individual agents in this experiment. Actual TGIs higher than predicted TGIs reflect better than additive (synergistic) data.

[1] = Day 15 (end of dosing), in combination with anti CTLA4
[2] = Day 15 (end of dosing), in combination with antiPDL1
[3] = Day 23 (last day of vehicles), in combination with anti CTLA4
[4] = Day 23 (last day of vehicles), in combination with antiPDL1

NS(=O)(=O)NCCNc1nonc1/C(=N/O)Nc1ccc(F)c(Br)c1 [IDOc]
Actual TGI [1]: 74% | Predicted TGI [1]: 66% | Actual TGI [2]: 81% | Predicted TGI [2]: 24% | Actual TGI [3]: 93% | Predicted TGI [3]: 65% | Actual TGI [4]: 82% | Predicted TGI [4]: 35%
